Test results reported in the NIST ThermoML archive (doi:10.1016/j.jct.2018.02.014).
± gives the expanded uncertainty stated by the source.

Test: activity coefficient (dimensionless); of the first substance listed, at infinite dilution; xn = mol fraction of the nth substance listed
Details: 101.33 kPa, Liquid, Chromatography, x1 = 0

SMILES | activity coefficient (318.15 K) | activity coefficient (328.15 K) | activity coefficient (338.15 K) | activity coefficient (348.15 K) | activity coefficient (358.15 K) | activity coefficient (368.15 K) | activity coefficient (298.15 K) | activity coefficient (308.15 K)
Cc1ccccc1C [1,2-dimethylbenzene] + CC[N+]1(C)CCOCC1.N#CN=C=[N-] | 10.8 ± 0.7 | 11.1 ± 0.8 | 11.4 ± 0.8 | 11.7 ± 0.8 | 12 ± 0.8 | 12.4 ± 0.8 |  | 
Cc1cccc(C)c1 [1,3-dimethylbenzene] + CC[N+]1(C)CCOCC1.N#CN=C=[N-] | 13.8 ± 0.9 | 14.1 ± 1 | 14.4 ± 1 | 14.7 ± 1 | 14.9 ± 1 | 15.2 ± 1 |  | 
Cc1ccc(C)cc1 [1,4-dimethylbenzene] + CC[N+]1(C)CCOCC1.N#CN=C=[N-] | 13.4 ± 0.9 | 13.7 ± 0.9 | 14 ± 1 | 14.3 ± 1 | 14.6 ± 1 | 14.9 ± 1 |  | 
C1COCCO1 [1,4-dioxane] + CC[N+]1(C)CCOCC1.N#CN=C=[N-] | 1.57 ± 0.1 | 1.69 ± 0.11 | 1.82 ± 0.12 | 1.94 ± 0.13 | 2.06 ± 0.14 | 2.19 ± 0.15 |  | 
CCC[N+](=O)[O-] [1-nitropropane] + CC[N+]1(C)CCOCC1.N#CN=C=[N-] | 2.29 ± 0.16 | 2.39 ± 0.16 | 2.49 ± 0.17 | 2.59 ± 0.18 | 2.68 ± 0.18 | 2.78 ± 0.19 |  | 
CC(C)CC(C)(C)C [2,2,4-trimethylpentane] + CC[N+]1(C)CCOCC1.N#CN=C=[N-] | 951 ± 66 | 853 ± 59 | 768 ± 53 |  |  |  | 1220 ± 84 | 1070 ± 74
COC(C)(C)C [2-methoxy-2-methylpropane] + CC[N+]1(C)CCOCC1.N#CN=C=[N-] |  | 33.1 ± 2.3 | 34.4 ± 2.4 | 35.6 ± 2.4 | 36.8 ± 2.5 | 38 ± 2.6 |  | 
CC(C)CO [2-methyl-1-propanol] + CC[N+]1(C)CCOCC1.N#CN=C=[N-] | 3.01 ± 0.2 | 2.93 ± 0.2 | 2.86 ± 0.19 | 2.79 ± 0.19 | 2.73 ± 0.19 | 2.67 ± 0.18 |  | 
CC(C)(C)O [2-methylpropan-2-ol] + CC[N+]1(C)CCOCC1.N#CN=C=[N-] | 2.77 ± 0.19 | 2.78 ± 0.19 | 2.8 ± 0.19 | 2.82 ± 0.19 | 2.83 ± 0.19 | 2.85 ± 0.19 |  | 
C=C(C)c1ccccc1 [(1-methylethenyl)benzene] + CC[N+]1(C)CCOCC1.N#CN=C=[N-] | 10.5 ± 0.7 | 11.1 ± 0.8 | 11.6 ± 0.8 | 12.1 ± 0.8 | 12.6 ± 0.9 | 13.1 ± 0.9 |  | 
CC(C)=O [acetone] + CC[N+]1(C)CCOCC1.N#CN=C=[N-] | 1.61 ± 0.11 | 1.7 ± 0.11 | 1.8 ± 0.12 | 1.9 ± 0.13 | 1.99 ± 0.14 | 2.09 ± 0.14 |  | 
CC#N [acetonitrile] + CC[N+]1(C)CCOCC1.N#CN=C=[N-] | 0.966 ± 0.061 | 1.01 ± 0.06 | 1.06 ± 0.07 | 1.11 ± 0.07 | 1.16 ± 0.07 | 1.21 ± 0.08 |  | 
c1ccccc1 [benzene] + CC[N+]1(C)CCOCC1.N#CN=C=[N-] | 4.46 ± 0.3 | 4.62 ± 0.31 | 4.76 ± 0.32 | 4.91 ± 0.33 | 5.05 ± 0.34 | 5.2 ± 0.35 |  | 
CCC(C)O (stereo not drawn) [butan-2-ol] + CC[N+]1(C)CCOCC1.N#CN=C=[N-] | 2.98 ± 0.2 | 2.94 ± 0.2 | 2.9 ± 0.2 | 2.86 ± 0.19 | 2.83 ± 0.19 | 2.81 ± 0.19 |  | 
C1CCCCCC1 [cycloheptane] + CC[N+]1(C)CCOCC1.N#CN=C=[N-] | 215 ± 15 | 202 ± 14 | 189 ± 13 | 179 ± 12 | 169 ± 12 | 161 ± 11 |  | 
C1CCCCC1 [cyclohexane] + CC[N+]1(C)CCOCC1.N#CN=C=[N-] | 168 ± 12 | 152 ± 10 | 138 ± 9 | 126 ± 9 | 115 ± 8 | 106 ± 7 |  | 
C1=CCCCC1 [cyclohexene] + CC[N+]1(C)CCOCC1.N#CN=C=[N-] | 50.7 ± 3.5 | 50 ± 3.4 | 49.4 ± 3.4 |  |  |  |  | 
C1CCCCCCC1 [cyclooctane] + CC[N+]1(C)CCOCC1.N#CN=C=[N-] | 313 ± 22 | 293 ± 20 | 273 ± 19 | 257 ± 18 | 242 ± 17 | 229 ± 16 |  | 
CCOCC [diethyl ether] + CC[N+]1(C)CCOCC1.N#CN=C=[N-] |  | 28.5 ± 1.9 | 29.3 ± 2 | 30.1 ± 2.1 | 30.8 ± 2.1 | 31.6 ± 2.2 |  | 
CC(C)OC(C)C [diisopropyl ether] + CC[N+]1(C)CCOCC1.N#CN=C=[N-] |  | 123 ± 8 | 125 ± 9 | 127 ± 9 | 128 ± 9 | 130 ± 9 |  | 
CCO [ethanol] + CC[N+]1(C)CCOCC1.N#CN=C=[N-] | 1.2 ± 0.08 | 1.2 ± 0.08 | 1.21 ± 0.08 | 1.21 ± 0.08 | 1.22 ± 0.08 | 1.22 ± 0.08 |  | 
CCc1ccccc1 [ethylbenzene] + CC[N+]1(C)CCOCC1.N#CN=C=[N-] | 15.1 ± 1 | 15.3 ± 1 | 15.5 ± 1.1 | 15.7 ± 1.1 | 15.8 ± 1.1 | 16 ± 1.1 |  | 
CC(C)c1ccccc1 [isopropylbenzene] + CC[N+]1(C)CCOCC1.N#CN=C=[N-] | 27 ± 1.8 | 26.9 ± 1.8 | 26.9 ± 1.8 | 26.9 ± 1.8 | 26.9 ± 1.8 | 26.9 ± 1.8 |  | 
CO [methanol] + CC[N+]1(C)CCOCC1.N#CN=C=[N-] | 0.617 ± 0.043 | 0.631 ± 0.044 | 0.645 ± 0.044 | 0.659 ± 0.045 | 0.672 ± 0.046 | 0.684 ± 0.046 |  | 
COC(C)=O [methyl ethanoate] + CC[N+]1(C)CCOCC1.N#CN=C=[N-] | 2.86 ± 0.2 | 3.02 ± 0.21 | 3.18 ± 0.22 | 3.34 ± 0.23 | 3.5 ± 0.24 | 3.65 ± 0.25 |  | 

Next, values leading:

activity coefficient (318.15 K) | activity coefficient (328.15 K) | activity coefficient (338.15 K) | activity coefficient (348.15 K) | activity coefficient (358.15 K) | activity coefficient (368.15 K) | activity coefficient (298.15 K) | activity coefficient (308.15 K) | SMILES
1200 ± 83 | 1070 ± 74 | 960 ± 66 | 865 ± 60 | 785 ± 54 | 718 ± 49 |  |  | C=CCCCCCCCC [1-decene] + CC[N+]1(C)CCOCC1.N#CN=C=[N-]
288 ± 20 | 268 ± 18 | 251 ± 17 | 236 ± 16 | 222 ± 15 | 210 ± 14 |  |  | C=CCCCCC [1-heptene] + CC[N+]1(C)CCOCC1.N#CN=C=[N-]
44.9 ± 3.1 | 46.3 ± 3.2 | 47.6 ± 3.3 | 49 ± 3.4 | 50.3 ± 3.4 | 51.6 ± 3.5 |  |  | C#CCCCCC [1-heptyne] + CC[N+]1(C)CCOCC1.N#CN=C=[N-]
24.8 ± 1.7 | 25.6 ± 1.8 | 26.4 ± 1.8 | 27.4 ± 1.9 | 28.1 ± 1.9 | 28.9 ± 2 |  |  | C#CCCCC [1-hexyne] + CC[N+]1(C)CCOCC1.N#CN=C=[N-]
84.2 ± 5.8 | 84.6 ± 5.8 | 84.9 ± 5.8 | 85.6 ± 5.9 | 86.1 ± 5.9 | 86.8 ± 5.9 |  |  | C#CCCCCCC [1-octyne] + CC[N+]1(C)CCOCC1.N#CN=C=[N-]
14.3 ± 1 | 14.8 ± 1 | 15.4 ± 1.1 | 15.9 ± 1.1 | 16.5 ± 1.1 | 17 ± 1.2 |  |  | C#CCCC [1-pentyne] + CC[N+]1(C)CCOCC1.N#CN=C=[N-]
 | 105 ± 7 | 108 ± 7 | 111 ± 8 | 113 ± 8 | 116 ± 8 |  |  | CCOC(C)(C)C [2-ethoxy-2-methylpropane] + CC[N+]1(C)CCOCC1.N#CN=C=[N-]
 | 55.7 ± 3.8 | 57.9 ± 4 | 60 ± 4.1 | 62.2 ± 4.3 | 64.3 ± 4.4 |  |  | CCC(C)(C)OC [2-methoxy-2-methylbutane] + CC[N+]1(C)CCOCC1.N#CN=C=[N-]
3.08 ± 0.21 | 3.02 ± 0.21 | 2.98 ± 0.2 | 2.94 ± 0.2 | 2.9 ± 0.2 | 2.86 ± 0.19 |  |  | CCCCO [butan-1-ol] + CC[N+]1(C)CCOCC1.N#CN=C=[N-]
3.51 ± 0.24 | 3.65 ± 0.25 | 3.79 ± 0.26 | 3.92 ± 0.27 | 4.04 ± 0.28 | 4.17 ± 0.28 |  |  | CCCC=O [butanal] + CC[N+]1(C)CCOCC1.N#CN=C=[N-]
2230 ± 150 | 2030 ± 140 | 1880 ± 130 | 1740 ± 120 | 1610 ± 110 | 1500 ± 100 |  |  | CCCCCCCCCC [decane] + CC[N+]1(C)CCOCC1.N#CN=C=[N-]
 | 110 ± 8 | 112 ± 8 | 114 ± 8 | 116 ± 8 | 119 ± 8 |  |  | CCCOCCC [dipropyl ether] + CC[N+]1(C)CCOCC1.N#CN=C=[N-]
5.67 ± 0.39 | 5.93 ± 0.4 | 6.19 ± 0.42 | 6.45 ± 0.44 | 6.71 ± 0.46 | 6.96 ± 0.47 |  |  | CCOC(C)=O [ethyl acetate] + CC[N+]1(C)CCOCC1.N#CN=C=[N-]
729 ± 50 | 645 ± 44 | 574 ± 40 |  |  |  | 953 ± 66 | 831 ± 57 | CCCCCCC [heptane] + CC[N+]1(C)CCOCC1.N#CN=C=[N-]
163 ± 11 | 152 ± 10 | 141 ± 10 |  |  |  | 193 ± 13 | 177 ± 12 | C=CCCCC [hex-1-ene] + CC[N+]1(C)CCOCC1.N#CN=C=[N-]
482 ± 33 |  |  |  |  |  | 608 ± 42 | 539 ± 37 | CCCCCC [hexane] + CC[N+]1(C)CCOCC1.N#CN=C=[N-]
9.27 ± 0.63 | 9.53 ± 0.65 | 9.79 ± 0.67 | 10 ± 0.7 | 10.3 ± 0.7 | 10.5 ± 0.7 |  |  | CCCC(=O)OC [methyl butanoate] + CC[N+]1(C)CCOCC1.N#CN=C=[N-]
5.12 ± 0.35 | 5.36 ± 0.37 | 5.59 ± 0.38 | 5.82 ± 0.4 | 6.04 ± 0.41 | 6.26 ± 0.43 |  |  | CCC(=O)OC [methyl propanoate] + CC[N+]1(C)CCOCC1.N#CN=C=[N-]
